Patent US20220213061A9, “HETEROCYCLIC COMPOUNDS FOR MODULATING NR2F6” (TES Pharma S.r.l., priority 2020, published 2022)
Where a name gives a salt, the structure may show the parent alone.

Target: T1, recombinant human NR2F6 protein (Homo sapiens, UniProt P10588)
T1 sequence (P10588 1-404): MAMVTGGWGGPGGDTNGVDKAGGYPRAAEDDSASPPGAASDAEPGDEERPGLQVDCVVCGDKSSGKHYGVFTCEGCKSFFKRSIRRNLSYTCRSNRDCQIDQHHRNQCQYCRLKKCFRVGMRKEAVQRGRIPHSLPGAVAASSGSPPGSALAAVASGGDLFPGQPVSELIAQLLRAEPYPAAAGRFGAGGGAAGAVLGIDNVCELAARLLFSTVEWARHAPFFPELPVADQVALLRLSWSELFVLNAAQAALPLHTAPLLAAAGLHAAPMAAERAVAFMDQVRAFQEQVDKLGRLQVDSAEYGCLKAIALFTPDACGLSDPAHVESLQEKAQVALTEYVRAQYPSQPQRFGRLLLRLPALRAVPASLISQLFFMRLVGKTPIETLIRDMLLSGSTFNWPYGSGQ
Assay: Biochemical NR2F6 binding assay (EnSpire label-free)
Settings: label-free binding to immobilized purified recombinant human NR2F6; ligands 1 nM to 100 uM, 1% DMSO
Protocol: Purified recombinant human NR2F6 protein was dissolved in immobilization buffer at pH 4.5 and then immobilized in EnSpire-LFB High-Sensitivity User-Activated Plates at the concentration of 50 μg/well plate and left in incubation for 16 h at 4° C. Wells with only immobilization buffer were used as negative control to check the protein coating efficiency. NR2F6 ligands were resuspended in DMSO at the concentration of 10 mM, then dispensed into a plate containing assay buffer at concentrations ranging from 1 nM to 100 uM using an HP-dispenser. DMSO was normalized at the 1% of volume of each well. The final readings were taken over a period of 30 minutes. The label-free responses were measured as shifts in reflected wavelength and are expressed in picometers (pm). Results were analyzed using the EnSpire label-free user interface software, and EC50 and graphs were generated using GraphPad PRISM software. In the tables below, A is <1 μM; B is 1 to 10 μM; C is 10 to 50 μM; and D is >50 μM.

SMILES	EC50 [µM]
c1ccc([C@H]2CNC[C@@H]2OCc2cccc3cnccc23)cc1 (racemic) [Compound I-73, 5-({[(±)-trans-4-Phenylpyrrolidin-3-yl]oxy}methyl)isoquinoline dihydrochloride]	> 50
O=C(N[C@H]1CC[C@H](O)CC1)[C@H]1CNC[C@@H]1c1ccccc1 [Compound I-36, (3R,4S)—N-[(1,4-trans)-4-Hydroxycyclohexyl]-4-phenylpyrrolidine-3-carboxamide hydrochloride]	> 50
COc1ccc([C@@H]2CNC[C@H]2C(=O)Nc2cccc(-c3ccccc3)c2)cc1 (racemic) [Compound I-45, (±)-trans-N-(Biphenyl-3-yl)-4-(4-methoxyphenyl)pyrrolidine-3-carboxamide hydrochloride]	> 50
O=C(Nc1cccc(Oc2ccncc2)c1)[C@H]1CNC[C@@H]1c1ccccc1 (racemic) [Compound I-98, (±)-trans-4-Phenyl-N-[3-(pyridin-4-yloxy)phenyl]pyrrolidine-3-carboxamide dihydrochloride]	> 50
O=S(=O)(N[C@@H]1CNC[C@H]1c1ccccc1)c1cccc2cnccc12 (racemic) [Compound I-8, (±)-trans-N-(4-Phenylpyrrolidin-3-yl)isoquinoline-5-sulfonamide]	> 50
O=C(Nc1cccc2cnccc12)C1=C(c2ccccc2)CNC1 [Compound I-1, N-(Isoquinolin-5-yl)-4-phenyl-2,5-dihydro-1H-pyrrole-3-carboxamide]	10 to 50
CN(C(=O)[C@H]1CNC[C@@H]1c1ccccc1)c1cccc2cnccc12 [Compound I-57, (3R,4S)—N-(Isoquinolin-5-yl)-N-methyl-4-phenylpyrrolidine-3-carboxamide dihydrochloride]	> 50
O=C(N[C@H]1C[C@H](Oc2ccc(F)nc2)C1)[C@@H]1CNC[C@H]1c1ccccc1 (racemic) [Compound I-116, (±)-trans-N-{trans-3-[(6-Fluoropyridin-3-yl)oxy]cyclobutyl}-4-phenylpyrrolidine-3-carboxamide dihydrochloride]	10 to 50
S=C(Nc1cccc2cnccc12)O[C@@H]1CNC[C@@H]1c1ccccc1 (racemic) [Compound I-3, (±)-cis-O-(4-Phenylpyrrolidin-3-yl) isoquinolin-5-ylcarbamothioate]	10 to 50
O=C(Nc1cccc(-c2ccccc2)c1)[C@@H]1CNC[C@H]1c1ccccc1F (racemic) [Compound I-28, (±)-trans-4-(2-Fluorophenyl)-pyrrolidine-3-carboxylic acid biphenyl-3-ylamide hydrochloride]	> 50
O=C(Nc1cccc2cnccc12)[C@H]1CNC[C@@H]1c1nccs1 [Compound I-58, (3R,4R)—N-(Isoquinolin-5-yl)-4-(1,3-thiazol-2-yl)pyrrolidine-3-carboxamide dihydrochloride]	> 50
O=C(Nc1cccc(-c2cccnc2)c1)c1c[nH]cc1-c1ccccc1 [Compound I-51, 4-Phenyl-N-[3-(pyridin-3-yl)phenyl]-1H-pyrrole-3-carboxamide]	> 50
O=C(Nc1cccc(-c2ccccc2)c1)[C@@H]1CNC[C@H]1c1ccccc1 (racemic) [Compound I-13, (±)-trans-N-(Biphenyl-3-yl)-4-phenylpyrrolidine-3-carboxamide]	1 to 10
CN(C(=O)[C@@H]1CNC[C@H]1c1ccccc1)c1cccc(-c2cccnc2)c1 (racemic) [Compound I-47, (±)-trans-N-Methyl-4-phenyl-N-[3-(pyridin-3-yl)phenyl]pyrrolidine-3-carboxamide]	> 50
O=C(Nc1ccc(-c2cccnc2)cc1)[C@H]1CNC[C@@H]1c1ccccc1 [Compound I-39, (3R,4S)-4-Phenyl-N-[4-(pyridin-3-yl)phenyl]pyrrolidine-3-carboxamide dihydrochloride]	> 50
O=C(Nc1cccc(Oc2cccnc2)c1)[C@@H]1CNC[C@H]1c1ccccc1 (racemic) [Compound I-52, dihydrochloride]	> 50
O=C(Nc1cc2ccccc2cn1)[C@@H]1CNC[C@H]1c1ccccc1 [Compound I-43, (3S,4R)—N-(Isoquinolin-3-yl)-4-phenylpyrrolidine-3-carboxamide dihydrochloride]	1 to 10

Other lines, results leading:

EC50 [µM]	SMILES
1 to 10	Cc1ccc(O[C@H]2C[C@H](NC(=O)[C@@H]3CNC[C@H]3c3ccccc3)C2)cc1 (racemic) [Compound I-115, (±)-trans-N-[trans-3-(4-Methylphenoxy)cyclobutyl]-4-phenylpyrrolidine-3-carboxamide hydrochloride]
1 to 10	O=C(Nc1cccc2cnccc12)[C@H]1CNC[C@H]1c1ccccc1 [Compound I-88, (3R,4R)—N-(Isoquinolin-5-yl)-4-phenylpyrrolidine-3-carboxamide dihydrochloride]
1 to 10	O=C(Nc1cccc2ccccc12)[C@H]1CNC[C@@H]1c1ccc(C(F)(F)F)cc1 [Compound I-109, (3R,4S)—N-(Naphthalen-1-yl)-4-[4-(trifluoromethyl)phenyl]pyrrolidine-3-carboxamide hydrochloride]
1 to 10	c1ccc([C@@H]2CNC[C@@H]2Oc2cccc3cnccc23)cc1 (racemic) [Compound I-61, 5-{[(±)-cis-4-Phenylpyrrolidin-3-yl]oxy}isoquinoline dihydrochloride]
1 to 10	Cc1cccc(Oc2cccc(NC(=O)[C@H]3CNC[C@@H]3c3ccccc3)c2)c1 (racemic) [Compound I-97, (±)-trans-4-Phenyl-N-[3-(3-methylphenoxy)phenyl]pyrrolidine-3-carboxamide hydrochloride]
< 1	O=C(Nc1ccc(-c2ccc(F)nc2)cc1)[C@@H]1CNC[C@H]1c1ccccc1 [Compound I-108, (3S,4R)—N-[4-(6-Fluoropyridin-3-yl)phenyl]-4-phenylpyrrolidine-3-carboxamide dihydrochloride]
< 1	O=C(Nc1cccc(Oc2ccc(C(F)(F)F)nc2)c1)[C@H]1CNC[C@@H]1c1ccccc1 (racemic) [Compound I-104, (±)-trans-4-Phenyl-N-(3-{[6-(trifluoromethyl)pyridin-3-yl]oxy}phenyl) pyrrolidine-3-carboxamide dihydrochloride]
1 to 10	O=C(Nc1cccc2cnccc12)[C@@H]1CNC[C@H]1c1ccccc1 (racemic) [Compound I-21, (±)-trans-N-(Isoquinolin-5-yl)-4-phenylpyrrolidine-3-carboxamide dihydrochloride]
1 to 10	O=C(Nc1cccc2c(Cl)nccc12)[C@H]1CNC[C@@H]1c1ccccc1 [Compound I-83, (3R,4S)—N-(1-Chloroisoquinolin-5-yl)-4-phenylpyrrolidine-3-carboxamide dihydrochloride]
1 to 10	S=C(Nc1cccc2cnccc12)O[C@@H]1CNC[C@H]1c1ccccc1 (racemic) [Compound I-2, (±)-trans-O-(4-Phenylpyrrolidin-3-yl) isoquinolin-5-ylcarbamothioate]
1 to 10	O=C(Nc1ccc(C2CCCCC2)cc1)[C@@H]1CNC[C@H]1c1ccccc1 (racemic) [Compound I-87, (±)-trans-N-(4-Cyclohexylphenyl)-4-phenylpyrrolidine-3-carboxamide hydrochloride]
1 to 10	O=C(Nc1cccc(Nc2ccccc2)c1)[C@H]1CNC[C@@H]1c1ccccc1 [Compound I-113, (3R,4S)-4-Phenyl-N-[3-(phenylamino)phenyl]pyrrolidine-3-carboxamide hydrochloride]
1 to 10	O=C(Nc1cccc2ccccc12)[C@H]1CNC[C@@H]1c1ccccc1 [Compound I-74, (3R,4S)—N-(Naphthalen-1-yl)-4-phenylpyrrolidine-3-carboxamide hydrochloride]
1 to 10	O=C(Nc1ccccc1Oc1cccnc1)[C@H]1CNC[C@@H]1c1ccccc1 (racemic) [Compound I-68, (±)-trans-4-Phenyl-N-[2-(pyridin-3-yloxy)phenyl]pyrrolidine-3-carboxamide dihydrochloride]
1 to 10	O=C(Nc1cccc(-c2cccnc2)c1)[C@H]1CNC[C@@H]1C1CCCCC1 (racemic) [Compound I-71, (±)-trans 4-Cyclohexyl-N-[3-(pyridin-3-yl)phenyl]pyrrolidine-3-carboxamide dihydrochloride]
1 to 10	O=C(NC1CCN(c2ccc(F)cc2)CC1)[C@@H]1CNC[C@H]1c1ccccc1 [Compound I-121, (3S,4R)-3-{[1-(4-Fluorophenyl)Ipiperidin-4-yl]carbamoyl]}-4-phenylpyrrolidine dihydrochloride]
1 to 10	c1ccc([C@H]2CNC[C@@H]2Oc2cccc3cnccc23)cc1 (racemic) [Compound I-64, 5-{[(±)-trans-4-Phenylpyrrolidin-3-yl]oxy}isoquinoline dihydrochloride]
< 1	N#Cc1ccc(Oc2cccc(NC(=O)[C@@H]3CNC[C@H]3c3ccccc3)c2)cc1 [Compound I-112, (3S,4R)—N-[3-(4-Cyanophenoxy)phenyl]-4-phenylpyrrolidine-3-carboxamide hydrochloride]
